Data published in PubChem BioAssay AID179 (DTP/NCI, 2004).
Active and inactive are the calls of the source.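 Rule for the calls: active = compounds giving half or more protection of infected cells from virus-caused growth loss, again on retest; inactive = the rest.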

Tested on: CEM cells HIV-1 protection, formazan growth assay
Assay: NCI AIDS Antiviral Assay
Conditions: for IC50: measured here: growth of uninfected CEM cells
How it was run: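 Human CEM cells, uninfected and HIV-1-infected, exposed to five drug concentrations; growth measured by soluble formazan assay and scored as percent protection from infection, with protecting compounds retested.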

O=[N+]([O-])c1ccccc1SS(=O)(=O)c1ccc(Cl)cc1
EC50: > 79.4 µM | IC50: 44.7 µM

CC(C)=CCC1=C(O)C(=O)C(CC=C(C)C)=C(O)C1=O
EC50: > 83.2 µM | IC50: 43.7 µM

COc1ccc(OC)c2c1ccc1c(C)c3ccccc3c(C)c12
EC50: > 200 µM | IC50: 35.5 µM

c1ccc(-c2nc3ccccc3nc2SCc2cccnc2)cc1
EC50: > 7.94 µM | IC50: > 7.94 µM

CCCC/C(C)=N/NC(N)=S
outcome: inactive

O=C1C2C3C=C4c5ccccc5N(c5ccccc5)C4(C2C(=O)N1Cc1ccccc1)C1C(=O)N(Cc2ccccc2)C(=O)C31 (centres undefined)
outcome: inactive

N#C/C(=C/NC(=S)Nc1ccccc1)C(N)=O
EC50: > 200 µM | IC50: > 200 µM

CCNc1ccc2c(c1)C(=O)N(OS(C)(=O)=O)C2=O
outcome: inactive

CC(C)(C)C1(C#N)C(=O)N(c2ccc(N3C(=O)C(C#N)(C(C)(C)C)C34c3ccccc3-c3ccccc34)cc2)C12c1ccccc1-c1ccccc12 (centres undefined)
EC50: > 372 µM | IC50: 107 µM

Cc1cn(C2CC(n3ncnn3)C(CO)O2)c(=O)[nH]c1=O (centres undefined)
outcome: inactive

CC1(C)O[C@@H]2[C@@H](COC(C)(C)O[C@H]2C2SCCCS2)O1
EC50: > 200 µM | IC50: > 200 µM

C=CCOc1ccccc1N=N/C(C#N)=N\Nc1ccccc1OCC=C
EC50: > 200 µM | IC50: 110 µM

CC[C@@H](C(=O)[C@@H](C)[C@@H](O)[C@H](C)CCc1ccc(C)c(O)c1C(=O)O)[C@H]1O[C@](CC)([C@H]2CC[C@](O)(CC)[C@H](C)O2)C[C@@H]1C
EC50: 1.51 µM | IC50: 1.82 µM

N#CCCN(CCC#N)c1ccc(/C=C2\N=C(c3ccccc3)N(c3ccccn3)C2=O)cc1
EC50: > 200 µM | IC50: > 200 µM

O=C1c2c(F)c(F)c(F)c(F)c2SC2=Nc3cccc4cccc(c34)N12
EC50: > 200 µM | IC50: 1 µM

C#CC1(O)CCCCCCCCC2(CCCCCCCC1)OCCO2
EC50: > 200 µM | IC50: 25.7 µM

CCOP(=O)(OCC)C(C#N)Cc1ccco1 (centres undefined)
EC50: 41.7 µM | IC50: > 200 µM

COc1ccc(-n2c(C)nc3ccc(N=Cc4ccccc4)cc3c2=O)cc1
EC50: > 200 µM | IC50: > 200 µM

CCC/C(Cl)=N\OC(=O)Nc1ccc(F)c([N+](=O)[O-])c1
EC50: > 200 µM | IC50: 9.12 µM

CC(C)=C[C@@H]1C[C@H](C)c2c(O)cc(C)c3c2C1=C(C)C(=O)C3=O
EC50: > 200 µM | IC50: 22.4 µM

O=C1CCCC2=C1CC1=C(CCCC1=O)N2c1ccc(Cl)cc1
EC50: > 200 µM | IC50: 105 µM

CC1(O)CC(=O)c2c(cc3ccc(-c4c5c(c(O)c6c(O)cccc46)C(=O)CC(C)(O)C5)c(O)c3c2O)C1 (centres undefined)
EC50: > 200 µM | IC50: 0.389 µM

CC(=O)N1[C@H](C(=O)O)CS[C@H]1c1ccc(F)cc1
outcome: inactive

NC(N)=NS(=O)(=O)c1ccc(Nc2c3ccccc3nc3c(C(=O)NC(CO)(CO)CO)cccc23)cc1
EC50: > 200 µM | IC50: 3.31 µM

CC(=O)N/C=C/c1cc(O)ccc1O
outcome: inactive

O=C(CC/C(CC(=O)c1ccc(Cl)cc1)=N\O)Nc1cccc(Cl)c1
EC50: > 347 µM | IC50: 257 µM

O=c1/c(=C/c2ccc3c(c2)OCO3)sc2nnc(-c3ccco3)n12
EC50: > 55 µM | IC50: > 55 µM

O=C1Nc2ccccc2NC(=O)C1(O)O
EC50: > 200 µM | IC50: > 200 µM

CCC1=C(C)c2cc3[n-]c(cc4nc(c(C=O)c5[n-]c(cc1n2)c(C)c5CC)C(C)=C4CC)c(C)c3CC.[Ni+2]
EC50: > 50.1 µM | IC50: > 50.1 µM

CC1(C)CC(=O)C(CC2C(=O)c3ccccc3C2=O)C(=O)C1C(=O)C(=O)Nc1cccc2ccc(O)cc12 (centres undefined)
EC50: > 51.3 µM | IC50: > 51.3 µM

CCCCCCC[CH2][Sn]1([CH2]CCCCCCC)[O]C(=O)c2cccnc2[O]1
EC50: > 7.41 µM | IC50: > 7.41 µM

CNC(=O)CCCNC(=O)CCCC(=O)N(C)C
EC50: > 200 µM | IC50: > 200 µM

O=[N+]([O-])C1CC/C(=N/O)c2nonc21 (centres undefined)
EC50: > 200 µM | IC50: 123 µM

Clc1nn2nnnc2c2ccccc12
EC50: > 66.1 µM | IC50: 1.23 µM

Cc1ccc(S(=O)/C=C(\NC(=O)OCc2ccccc2)C(F)(F)F)cc1 (centres undefined)
outcome: inactive

CCCN(CCC)C(=S)S
EC50: > 200 µM | IC50: > 200 µM

NC(=S)Nc1nnc(-c2ccc(-c3nnc(NC(N)=S)o3)cc2)o1
outcome: inactive

O=S(O)CCCCCSSCCCCSSCCCCCS(=O)O
outcome: inactive

COc1ccc(C(=O)Nc2cc(Cc3cc(NC(=O)c4ccc(OC)c(C(=O)O)c4)c(OC)c(C(=O)O)c3)cc(C(=O)O)c2OC)cc1C(=O)O
EC50: > 50.1 µM | IC50: > 50.1 µM

O=[N+]([O-])c1cccc(S(=O)(=O)N2CCCC2)c1
EC50: > 200 µM | IC50: 166 µM

Clc1cccc(NC2=NCCN=C(Nc3cccc(Cl)c3Cl)SS2)c1Cl
EC50: > 200 µM | IC50: 21.4 µM

OC12c3ccccc3C1CCCCCCCCCC21OCCO1 (centres undefined)
outcome: inactive

Cc1ccc(C(=O)Nc2ccccc2)cc1N=NN(C)C
EC50: > 331 µM | IC50: 288 µM

OC(c1ccccc1)c1c(-c2ccccc2)oc(-c2ccccc2)c1C(O)c1ccccc1 (centres undefined)
outcome: inactive

CCCCCCCCC#CCCCCCCCCCC[C@@H]1C(=O)O[C@H](C)[C@@H]1O (tested in a mixture with another compound)
EC50: > 200 µM | IC50: 35.5 µM
